Results: ChEMBL document CHEMBL1137625, “Phenylpiperidine-benzoxazinones as urotensin-II receptor antagonists: synthesis, SAR, and in vivo assessment” (Bioorg Med Chem Lett, 2007)
Activity calls are given as the source filed them. The rule behind the calls is not given here.

Tests used:
[1] = molecular target: T1, Urotensin-2 receptor (Homo sapiens, UniProt Q9UKP6); assay: Displacement of [125I]U2 from human UT receptor in RMS13 cells after 2.5 hrs; assay type: cell-based
T1 sequence (Q9UKP6 whole entry): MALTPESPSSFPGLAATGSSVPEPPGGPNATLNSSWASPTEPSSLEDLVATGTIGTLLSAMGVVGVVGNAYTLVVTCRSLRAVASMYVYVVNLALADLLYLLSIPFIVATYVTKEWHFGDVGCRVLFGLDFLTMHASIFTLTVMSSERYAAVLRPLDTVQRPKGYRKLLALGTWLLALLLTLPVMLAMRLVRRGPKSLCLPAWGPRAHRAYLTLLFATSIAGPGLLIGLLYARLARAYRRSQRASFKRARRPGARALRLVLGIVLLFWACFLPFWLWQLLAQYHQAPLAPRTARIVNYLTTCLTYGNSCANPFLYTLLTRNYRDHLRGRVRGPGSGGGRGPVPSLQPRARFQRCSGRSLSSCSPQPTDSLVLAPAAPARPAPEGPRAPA

[2] = molecular target: T2, Urotensin-2 receptor (Rattus norvegicus, UniProt P49684); assay: Antagonist activity at rat UT receptor transfected in CHOK1 cells assessed as calcium mobilization by FLIPR method; assay type: functional, cell-based, CHO-K1
T2 sequence (P49684 whole entry): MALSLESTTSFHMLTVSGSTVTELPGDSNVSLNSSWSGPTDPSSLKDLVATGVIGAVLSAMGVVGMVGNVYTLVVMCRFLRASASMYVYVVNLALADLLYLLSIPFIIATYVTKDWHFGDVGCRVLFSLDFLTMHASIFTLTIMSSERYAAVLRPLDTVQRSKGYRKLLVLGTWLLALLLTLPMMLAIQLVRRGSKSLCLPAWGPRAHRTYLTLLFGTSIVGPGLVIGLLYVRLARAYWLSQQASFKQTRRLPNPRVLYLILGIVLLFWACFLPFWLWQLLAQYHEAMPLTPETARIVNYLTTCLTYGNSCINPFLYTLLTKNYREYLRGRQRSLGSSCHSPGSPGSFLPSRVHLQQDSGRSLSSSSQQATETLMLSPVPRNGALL

[3] = Half life in rat at 2 mg/kg, iv; assay type: ADME, organism-based; design: dose 2 mg/kg, route intravenous; details: in vivo
[4] = tested on: Rattus norvegicus; assay: Effect on ear pinna temperature in sc dosed rat; assay type: functional, organism-based
[5] = tested on: Rattus norvegicus; assay: Decrease in U2-induced ear pinna temperature in iv dosed rat; assay type: functional, organism-based
[6] = Cmax in rat at 2 mg/kg, iv; assay type: ADME, organism-based; design: dose 2 mg/kg, route intravenous; details: in vivo

Ki [1] [nM] | SMILES | IC50 [2] [nM] | further results
77 | CC(C)(C)OC(=O)N1CCC(CCNC(=O)c2cc(Cl)ccc2C2CCN(CCN3C(=O)COc4ccccc43)CC2)CC1 |  | 
 | CN(CCCc1ccccc1)C(=O)C1(c2ccccc2)CCN(CCN2C(=O)COc3ccccc32)CC1 | 9100 | 
 | O=C1COc2ccccc2N1CCN1CCC(C(=O)NCc2ccccc2)(c2ccccc2)CC1 | 43000 | 
65 | CC(C)(C)OC(=O)N1CCN(CCNC(=O)c2cc(Cl)ccc2C2CCN(CCN3C(=O)COc4ccccc43)CC2)CC1 | 10 | half-life [3]: 2.12 h; Activity [4]: inactive; Activity [5]: Active; Cmax [6]: 553 ng/mL
 | CN(CCc1ccccc1)C(=O)C1(c2ccccc2)CCN(CCN2C(=O)COc3ccccc32)CC1 | 12000 | 
27 | CC(C)(C)CC(=O)N1CCC(CNC(=O)c2cc(Cl)ccc2C2CCN(CCN3C(=O)COc4ccccc43)CC2)CC1 |  | 
160 | O=C(NCC1CCN(C(=O)c2ccccc2)CC1)c1cc(Cl)ccc1C1CCN(CCN2C(=O)COc3ccccc32)CC1 |  | 
